Results taken from patent publication US10364263B2, “Cyclic phosphates and cyclic phosphoramidates for the treatment of neurologic disorders” (Retrophin, Inc., priority 2015, dated 2019).
Like-named read-outs stand apart in the source and are kept apart here.

How the values were obtained:
Format in all cases: in vitro ADME
[1] = Stability in mouse plasma
Outline: (§1)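 Test compound at 3 μM (0.1% DMSO) was incubated in mouse or human plasma at 37 °C and sampled in duplicate at 0, 10, 20, 30, 40 and 60 min. Reactions were stopped with acetonitrile/formic acid containing internal standard. Remaining parent was measured by UPLC-MS/MS without a calibration curve.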

[2] = Permeability in porcine brain endothelial cell blood-brain barrier model; details: pig (endothelial cells), co-cultured with rat astrocytes, pH 7.4, PBECs/As blood-brain barrier model, luminal to basal
From the text: Compounds disclosed herein show the potential to reach mammalian brain by crossing the blood-brain barrier (BBB) from systemic circulation. […] The porcine brain endothelial cell permeability assay is an in vitro BBB model to be used for the prediction of central nervous system (CNS) drug permeability in vivo and for ranking or prioritization of compounds according to their permeability. This system can also be used for mechanistic studies and drug delivery strategies via receptor-mediated transport (transcytosis). The system is a two-dimensional co-culture, non-contact model of two types of primary cells: primary brain endothelial cells obtained from fresh porcine brains, and primary rat astrocytes, obtained from neonatal rats. This ensures barrier formation and functional expression of key transporters.
The endothelial cells were cultured on rat-tail collagen type I and human fibronectin coated Transwell polycarbonate inserts (surface area 0.7 cm^2; pore size 0.4 μm) and the inserts were placed in 24-well plates containing confluent rat astrocytes. This system allows for the formation of a differentiated BBB model suitable for compound permeability in 10 days.
On the day of the experiment, culture medium was removed and cells were pre-incubated for 30 min with HBSS containing 20 mM Hepes pH 7.4 and 0.1% BSA. Donor volume (apical) was 400 μl and receiver volume (basal) 900 μl. Compounds were diluted in assay medium (at the desired concentration) and added to the luminal side (to mimic blood to brain passage). Transport was measured usually after 60 min by detecting the amount of compound from the basal (brain side). The integrity of the cell layers was assessed by measuring the transendothelial electrical resistance (TEER) and by monitoring FITC-dextran (40 KDa) permeation. Inserts with TEER values […] were selected for permeability studies. As FITC-dextran cannot freely permeate lipophilic barriers, a high degree of FITC-dextran transport indicates poor integrity of the cell layer and wells with high FITC-dextran permeability were excluded. FITC-dextran was included as internal control in each insert used for permeability studies. Fluorescence was measured using a fluorimetric detector. Radioactivity was measured by scintillation counting. For LC-MS/MS analysis, aliquots (200 μl) from the basal compartment were diluted with an equal volume of 100% acetonitrile containing 0.1% formic acid, centrifuged to remove cell debris, and evaporated under N2. After reconstitution, samples were analyzed by LC-MS/MS. Mass balance was determined considering the amount of compound recovered in the donor and receiver chamber at the end of the assay relative to the amount added to the donor chamber at time 0.
Permeability was defined as the apparent permeability coefficient (Papp), which is a measure of the appearance rate of the compound in the receiver chamber, expressed in cm/s. Papp is calculated according the following equation: Papp[cm/sec]=Vd*ΔMr/A*Md*Δt, Equation 2: where
Vd=volume in the donor compartment in cm^3 or mL;
ΔMr=total amount of compound in the receiver compartment after t seconds;
Md=donor amount (added at time 0)
Δt=time measured in seconds
A=filter area in cm^2 (for 24 well plate, A=0.7 cm^2).
To correct for the contribution of filter and substrate, Papp was also determined for the cell-free system. Permeability of the endothelial cell layer was determined using the following equation: […], Equation 3: where
Ptotal=the P of the total system,
Pf=P for the cell-free filter, and
Pe=P for the endothelial cell layer alone. In this equation, the total resistance of the system towards passage of a substance is additively composed of two […] resistances: that of the cell monolayer and that of the filter.

[3] = Stability in human plasma; details: 37° C.; for t1/2, Human Plasma, Diastereoisomer B: 3 μM
Outline: as §1

[4] = Stability in human hepatocytes; details: for half-life at 5 µM: t1/2, Human Hepatocytes; for half-life: 5 μM, 1 million cells/ml, 37° C., human hepatocytes
[5] = Diastereoisomer A, read-out: Papp Diastereoisomer A
[6] = Diastereoisomer B, read-out: Papp Diastereoisomer B
[7] = human, plasma, Diastereoisomer A (upfield shift in 31P NMR), read-out: t1/2, Human Plasma, Diastereoisomer A (converted)
[8] = human, plasma, Diastereoisomer B, read-out: t1/2, Human Plasma, Diastereoisomer B (converted)
[9] = Diastereoisomer A (upfield shift in 31P NMR), 3 μM, 37° C., mouse plasma, read-out: t1/2, Mouse Plasma, Diastereoisomer A
[10] = Diastereoisomer B, 3 μM, 37° C., mouse plasma
[11] = Diastereoisomer A (upfield shift in 31P NMR), read-out: t1/2, Human Hepatocytes, Diastereoisomer A (converted)
[12] = Diastereoisomer B, read-out: t1/2, Human Hepatocytes, Diastereoisomer B (converted)
[13] = Diastereoisomer A (upfield shift in 31P NMR), read-out: t1/2, Human Plasma, Diastereoisomer A (converted)

| Structure (SMILES) | half-life at 3 µM ([1]; mouse, plasma) | t1/2, Mouse Plasma, Diastereoisomer B ([1]; mouse, plasma, 3 µM) | Papp A→B at 60 min [2, 5] | Papp A→B at 60 min [2, 6] | half-life at 3 µM [3, 7] | half-life at 3 µM [3, 8] | half-life at 5 µM ([4]; Diastereoisomer A) | half-life at 5 µM ([4]; Diastereoisomer B) | half-life at 3 µM [1, 9] | t1/2, Mouse Plasma, Diastereoisomer B [1, 10] | half-life [4, 11] | half-life [4, 12] | half-life at 3 µM [3, 13] | t1/2, Human Plasma, Diastereoisomer B ([3]; Diastereoisomer B) |
| --- | --- | --- | --- | --- | --- | --- | --- | --- | --- | --- | --- | --- | --- | --- |
| COC(=O)CCNC(=O)[C@@H]1OP(=O)(N[C@@H](C)C(=O)OC)OCC1(C)C (stereo partly drawn) [compound 5, methyl 3-((4R)-2-(((S)-1-methoxy-1-oxopropan-2-yl)amino)-5,5-dimethyl-2-oxido-1,3,2-dioxaphosphinane-4-carboxamido)propanoate] |  |  | 6.27 ×10⁻⁶ cm/s | 5.06 ×10⁻⁶ cm/s |  |  |  |  | < 9.6 min | <9.6 min | 159 min | 60 min | > 60 min | >1 h |
| COC(=O)CCNC(=O)[C@@H]1OP(=O)(N[C@H](C)C(=O)OC)OCC1(C)C (stereo partly drawn) [compound 16, methyl 3-((4R)-2-(((R)-1-methoxy-1-oxopropan-2-yl)amino)-5,5-dimethyl-2-oxido-1,3,2-dioxaphosphinane-4-carboxamido)propanoate] |  |  | 3.33 ×10⁻⁶ cm/s | 4.35 ×10⁻⁶ cm/s |  |  |  |  | < 9.6 min | <9.6 min | > 240 min | 80.4 min | > 60 min | >1 h |
| COC(=O)CCNC(=O)[C@@H]1OP(=O)(NCCN2CCCC2)OCC1(C)C (stereo partly drawn) [compound 109, methyl 3-((4R)-5,5-dimethyl-2-oxido-2-((2-(pyrrolidin-1-yl)ethyl)amino)-1,3,2-dioxaphosphinane-4-carboxamido)propanoate] |  |  | 5.26 ×10⁻⁶ cm/s |  |  |  |  |  | < 9.6 min |  | > 240 min |  | > 60 min |  |

The next lines start with results.

| half-life at 3 µM ([1]; mouse, plasma) | t1/2, Mouse Plasma, Diastereoisomer B ([1]; mouse, plasma, 3 µM) | Papp A→B at 60 min [2, 5] | Papp A→B at 60 min [2, 6] | half-life at 3 µM [3, 7] | half-life at 3 µM [3, 8] | half-life at 5 µM ([4]; Diastereoisomer A) | half-life at 5 µM ([4]; Diastereoisomer B) | Structure (SMILES) | half-life at 3 µM [1, 9] | t1/2, Mouse Plasma, Diastereoisomer B [1, 10] | half-life [4, 11] | half-life [4, 12] | half-life at 3 µM [3, 13] | t1/2, Human Plasma, Diastereoisomer B ([3]; Diastereoisomer B) |
| --- | --- | --- | --- | --- | --- | --- | --- | --- | --- | --- | --- | --- | --- | --- |
| < 9.6 min | <9.6 min | 1.58 ×10⁻⁶ cm/s | 2.56 ×10⁻⁶ cm/s | < 9.6 min | < 9.6 min |  |  | COC(=O)CCNC(=O)[C@@H]1OP(=O)(OCOC(=O)c2cncs2)OCC1(C)C (stereo partly drawn) [Compound No. 70, (((4R)-4-((3-methoxy-3-oxopropyl)carbamoyl)-5,5-dimethyl-2-oxido-1,3,2-dioxaphosphinan-2-yl)oxy)methyl thiazole-5-carboxylate] |  |  |  |  |  |  |
| < 9.6 min | <9.6 min | 1.95 ×10⁻⁶ cm/s | 2.9 ×10⁻⁶ cm/s | > 60 min | > 60 min | 18.6 min | < 15 min | COC(=O)CCNC(=O)[C@@H]1OP(=O)(NCCC(=O)OCc2ccccc2)OCC1(C)C (stereo partly drawn) [compound 117, benzyl 3-(((4R)-4-((3-methoxy-3-oxopropyl)carbamoyl)-5,5-dimethyl-2-oxido-1,3,2-dioxaphosphinan-2-yl)amino)propanoate] |  |  |  |  |  |  |
|  |  | 21.1 ×10⁻⁶ cm/s | 21 ×10⁻⁶ cm/s |  |  | < 15 min | < 15 min | COC(=O)CCNC(=O)[C@@H]1OP(=O)(OCCSC(=O)C(C)(C)C)OCC1(C)C (stereo partly drawn) [Compound No. 2-133, Methyl 3-((4R)-5,5-dimethyl-2-oxido-2-(2-(pivaloylthio)ethoxy)-1,3,2-dioxaphosphinane-4-carboxamido)propanoate] |  |  |  |  |  |  |
|  |  | 10.1 ×10⁻⁶ cm/s | 14 ×10⁻⁶ cm/s |  |  | < 15 min | < 15 min | COC(=O)CCNC(=O)[C@@H]1OP(=O)(N[C@@H](Cc2ccccc2)C(=O)OCc2ccccc2)OCC1(C)C (stereo partly drawn) [compound 10, benzyl ((4R)-4-((3-methoxy-3-oxopropyl)carbamoyl)-5,5-dimethyl-2-oxido-1,3,2-dioxaphosphinan-2-yl)-L-phenylalaninate] |  |  |  |  |  |  |
| < 9.6 min | <9.6 min | 0.54 ×10⁻⁶ cm/s | 0.6 ×10⁻⁶ cm/s | 15.6 min | 49.2 min | > 240 min | 191 min | COC(=O)CCNC(=O)[C@@H]1OP(=O)(N[C@@H](C)C(=O)OCc2cccnc2)OCC1(C)C (stereo partly drawn) [compound 24, methyl 3-((4R)-5,5-dimethyl-2-oxido-2-(((S)-1-oxo-1-(pyridin-3-ylmethoxy)propan-2-yl)amino)-1,3,2-dioxaphosphinane-4-carboxamido)propanoate] |  |  |  |  |  |  |
